{
  "source": "patent US7276510B2",
  "about": "“HIV replication inhibitors” (Janssen Pharmaceutica, Inc., priority 2000, dated 2007)",
  "key": {"HIV-infected MT-4 cells": {"tested_on": "HIV-infected MT-4 cells", "assay": "Inhibition of the HIV-induced cytopathic effect in MT-4 cells (MTT)", "format": "cell-based", "details": "read-out: IC50 (50% inhibitory concentration; dose achieving 50% protection); HIV-infected MT-4 cells, MTT, OD 540 nm", "method": "(§1) A rapid, sensitive and automated assay procedure was used for the in vitro evaluation of anti-HIV agents. An […] T4-cell line, MT-4, which was previously shown (Koyanagi et al., Int. J. Cancer, 36, 445-451, 1985) to be highly susceptible to and permissive for HIV infection, served as the target cell line. Inhibition of the HIV-induced cytopathic effect was used as the end point. The viability of both HIV- and mock-infected cells was assessed spectrophotometrically via the in situ reduction of 3-(4,5-dimethylthiazol-2-yl)-2,5-diphenyltetrazolium bromide (MTT). […] The percent protection achieved by the compound in HIV-infected cells was calculated by the following formula:\n(§2) [formula] whereby (ODT)HIV is the optical density measured with a given concentration of the test compound in HIV-infected cells; (ODC)HIV is the optical density measured for the control untreated HIV-infected cells; (ODC)MOCK is the optical density measured for the control untreated mock-infected cells; all optical density values were determined at 540 nm. […] The ratio of CC50 to IC50 was defined as the selectivity index (SI)."}, "mock-infected MT-4 cells": {"tested_on": "mock-infected MT-4 cells", "assay": "Cytotoxicity in mock-infected MT-4 cells (MTT)", "format": "cell-based", "details": "read-out: CC50 (50% cytotoxic concentration), OD 540 nm", "method": "as §1, §2"}},
  "data": [
    {"compound": "Cc1cc(C)c(Oc2cc(C(F)(F)F)nc(Nc3ccc(C#N)cc3)n2)c(C)c1", "note": "[Compound 25]", "values": [
      {"measurement": "IC50", "setting": "HIV-infected MT-4 cells", "result": 79, "unit": "nM"},
      {"measurement": "CC50", "setting": "mock-infected MT-4 cells", "result": "> 100000", "unit": "nM"}
    ]},
    {"compound": "Cc1cc(Cl)cc(Cl)c1Nc1nc(Cl)nc(Nc2ccc(C#N)cc2)n1", "note": "[Compound 109]", "values": [
      {"measurement": "IC50", "setting": "HIV-infected MT-4 cells", "result": 3.98, "unit": "nM"},
      {"measurement": "CC50", "setting": "mock-infected MT-4 cells", "result": 12600, "unit": "nM"}
    ]}
  ]
}
